Data set [1] deals with Coccidioides posadasii (n = 24). Put plainly: microbe, parasite or virus in culture. Particulars: for MIC50 / MIC90 / MIC: Coccidioides posadasii; for MIC: read-out: GM MIC. It counts as cell-based.
Data set [2] concerns Coccidioides immitis (n = 21). Nature of the data set: microbe, parasite or virus in culture. In kind it is cell-based. The note with it: for MIC50 / MIC90 / MIC: Coccidioides immitis; for MIC: read-out: GM MIC.
Data set [3] concerns All Coccidioides isolates (n = 59). Nature of the data set: microbe, parasite or virus in culture. In kind it is cell-based, Coccidioides species. Particulars: for MIC: read-out: GM MIC.
In data set [4] the test system is C. immitis (isolate UTHSCSA DI17-143). Put plainly: microbe, parasite or virus in culture. In kind it is cell-based. The note with it: Coccidioides immitis.
For data set [5], the system named is C. immitis. The arrangement: species or system ICR mice. Particulars: mouse, in vivo.
The target of data set [6] is recombinant human enzyme (dihydroorotate dehydrogenase) (Homo sapiens, UniProt Q02127). Particulars: cited from earlier work.
The conditions of data set [7]: mouse, in vivo, po.
In data set [8] the test system is coccidioidomycosis. The note with it: human, in vivo.
The test system of data set [9] is C. immitis. Set-up: species or system ICR mice. The note with it: mouse, in vivo. The source holds these as a separate data set.
In data set [10] the test system is dihydroorotate dehydrogenase in yeast, including Candida and Cryptococcus species. The note with it: cited from earlier work.
Data set [11] relates to C. immitis. Set-up: species or system ICR mice. The note with it: mouse, in vivo. The source holds these as a separate data set.
Data set [12] is described as follows: in vivo. Particulars: mouse; for AUC(0-t): AUC 0-12.

≈ marks a conversion by molar mass, not a printed value. Where “and” joins values, the source holds several entries; their conditions need not be identical. Equal entries are not always repeated. Entries after “also recorded” stand apart in the source; their conditions may differ.

recombinant human enzyme (dihydroorotate dehydrogenase), sequence (Q02127 whole entry): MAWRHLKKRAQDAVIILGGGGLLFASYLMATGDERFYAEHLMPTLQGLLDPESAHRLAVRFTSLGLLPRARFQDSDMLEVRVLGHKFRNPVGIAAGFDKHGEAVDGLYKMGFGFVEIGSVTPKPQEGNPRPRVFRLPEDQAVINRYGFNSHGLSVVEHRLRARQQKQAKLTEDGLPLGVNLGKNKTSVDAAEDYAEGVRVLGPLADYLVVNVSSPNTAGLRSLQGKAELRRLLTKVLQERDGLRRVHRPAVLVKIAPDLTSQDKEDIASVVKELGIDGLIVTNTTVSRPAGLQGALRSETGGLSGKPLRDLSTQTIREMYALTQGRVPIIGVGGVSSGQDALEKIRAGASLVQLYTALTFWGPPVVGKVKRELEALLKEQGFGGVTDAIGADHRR

In the case of `C[C@@H](c1ncncc1F)[C@](O)(Cn1cncn1)c1ccc(F)cc1F` [voriconazole, reference compound], in data set [1], the MIC range was at most 0.03 to 0.25 µg/mL, the MIC50 stood at 0.125 µg/mL (≈ 0.358 µM), the MIC90 is 0.125 µg/mL (≈ 0.358 µM) and the MIC was found to be 0.103 µg/mL (≈ 0.295 µM). In data set [2], the MIC range was at most 0.03 to 0.25 µg/mL, the MIC50 was 0.06 µg/mL (≈ 0.172 µM), the MIC90 was 0.125 µg/mL (≈ 0.358 µM) and the MIC worked out at 0.072 µg/mL (≈ 0.206 µM). Besides, in data set [3], the MIC50 came to 0.125 µg/mL (≈ 0.358 µM), the MIC90 is 0.25 µg/mL (≈ 0.716 µM) and the MIC is 0.113 µg/mL (≈ 0.323 µM). This compound also came in with an MIC in data set [4] of 0.125 µg/mL (≈ 0.358 µM).
As for `Cc1cc(-c2ccccc2)c(C(=O)C(=O)Nc2ccc(N3CCN(c4ncc(F)cn4)CC3)cc2)n1C` [olorofim, 2-(1,5-dimethyl-3-phenyl-1H-pyrrol-2-yl)-N-(4-(4-(5-fluoropyrimidin-2-yl)piperazin-1-yl)phenyl)-2-oxoacetamide], the “mice with no fungal colonies in plated whole-brain homogenates” value in data set [5] was 7 of the 10 and 7 of 10. In addition, the MIC range in data set [1] and in data set [2] was at most 0.008 to 0.015 µg/mL throughout. The MIC50 in data set [1], in data set [2] and in data set [3] was at most 0.008 µg/mL each time. Besides, the MIC90 in [1], in data set [2] and in [3] was 0.015 µg/mL (≈ 0.0301 µM) throughout. Moreover, the MIC came to 0.009 µg/mL (≈ 0.0181 µM) in [1], 0.009 µg/mL (≈ 0.0181 µM) in data set [2], 0.011 µg/mL (≈ 0.0221 µM) in data set [3] and 0.015 µg/mL (≈ 0.0301 µM) in data set [4]. For the same compound, the “inhibition of dihydroorotate dehydrogenase” value in data set [6] and in data set [10] was “little to no inhibition” in each case. For the same compound, in data set [7], the “Levels in brain compared with plasma” value is given as “slightly lower than those in plasma”. For the same compound, the “Levels in lung compared with plasma” value in [7] is given as “slightly higher”. Also, in data set [7], the “exposure in females compared with males” value is “slightly higher in females”. For the same compound, the “clinical status at 3 months” value in data set [8] was “no longer required the use of oxygen and was able to walk unaided”. The “clinical status at 6 months” value in data set [8] is “continues to be asymptomatic 6 months after initiation of olorofim therapy”. In data set [8], the symptomatic response entry is “symptomatic improvements within a few weeks; also recorded: symptomatic improvement within three weeks”. In data set [8], the “time to symptomatic improvement” value is listed as at most 4 weeks. The “day on which mice began to succumb to infection” value in [9] is 18 days. In addition, the median survival time in data set [9] is 22 days and 26 days and 23.5 days and > 30 days. Also, the “percentage of mice that survived to the study endpoint” value in data set [9] turned out to be 80%. Further, the “brain fungal burden (mean CFU count)” value in data set [11] is 4.36 log 10 CFU/g and 3.41 log 10 CFU/g. The “fungal burdens, three times daily compared to twice daily administration” value in [11] is given as “further reductions in fungal burdens”. The Tmax in data set [12] (both, Plasma Tmax) is at most 1 h; in data set [12] (female, po, 10 mg/kg, Tmax), 1 h; in data set [12] (female, po, 30 mg/kg, Tmax), 1 h; in [12] (male, po, 10 mg/kg, Tmax) it was 0.5 h; in data set [12] (male, po, 20 mg/kg, Tmax), 1 h; in data set [12] (male, po, 30 mg/kg, Tmax), 1 h. The area under the curve AUC(0-t) in [12] (female, po, 10 mg/kg) stood at 11400 ng·h/mL; in data set [12] (female, po, 20 mg/kg), 26600 ng·h/mL; in data set [12] (female, po, 30 mg/kg), 30800 ng·h/mL; in [12] (male, po, 10 mg/kg) it was 8700 ng·h/mL; in data set [12] (male, po, 20 mg/kg) it was 22100 ng·h/mL; in data set [12] (male, po, 30 mg/kg), 27700 ng·h/mL. Further, the maximum concentration (Cmax) in [12] (female, po, 20 mg/kg) amounted to 4610 ng/mL; in [12] (female, po, 30 mg/kg), 4110 ng/mL; in data set [12] (male, po, 20 mg/kg), 3910 ng/mL; in data set [12] (male, po, 30 mg/kg), 4110 ng/mL. The half-life in data set [12] was around 120 min.
Consider `OC(Cn1cncn1)(Cn1cncn1)c1ccc(F)cc1F` [fluconazole, reference compound], for which the “rebound in fungal burdens once therapy was stopped” value in data set [5] was “rebound in fungal burdens”. In addition, in [9], the median survival time was 30 days and 28 days. The “brain fungal burden (mean of combined results)” value in data set [11] is on record as 1.33 log 10 CFU/g. In [4], the MIC was 16 µg/mL (≈ 52.2 µM).

Usually Tmax stands for the time at which the peak concentration occurs. The term AUC(0-t) denotes exposure summed from dosing to a finite time, without extrapolation to infinity. Low readings indicate low exposure, high ones high exposure. What is called Cmax is the maximum level reached in the sampled fluid or tissue. Broadly, the half-life is the time in which the quantity being followed falls by half.

The record behind these values is patent publication US11819503B2 (priority 2019, dated 2023).
